{"source": "patent US10543212B2", "about": "“Substituted amines for treating cardiac diseases” (Cardurion Pharmaceuticals, LLC, priority 2017, dated 2020)", "biological_target": "T1, Full-length, GST-tagged, human CaMKIIδ (Homo sapiens, UniProt Q13557)", "T1 construct": "Full-Length, Glutathione-S-Transferase(GST)-Tagged, Human CaMKIIδ was purchased from Carna Biosciences; purchased Carna Biosciences 02-111", "T1 sequence (Q13557 1-478 isoform Q13557-12)": "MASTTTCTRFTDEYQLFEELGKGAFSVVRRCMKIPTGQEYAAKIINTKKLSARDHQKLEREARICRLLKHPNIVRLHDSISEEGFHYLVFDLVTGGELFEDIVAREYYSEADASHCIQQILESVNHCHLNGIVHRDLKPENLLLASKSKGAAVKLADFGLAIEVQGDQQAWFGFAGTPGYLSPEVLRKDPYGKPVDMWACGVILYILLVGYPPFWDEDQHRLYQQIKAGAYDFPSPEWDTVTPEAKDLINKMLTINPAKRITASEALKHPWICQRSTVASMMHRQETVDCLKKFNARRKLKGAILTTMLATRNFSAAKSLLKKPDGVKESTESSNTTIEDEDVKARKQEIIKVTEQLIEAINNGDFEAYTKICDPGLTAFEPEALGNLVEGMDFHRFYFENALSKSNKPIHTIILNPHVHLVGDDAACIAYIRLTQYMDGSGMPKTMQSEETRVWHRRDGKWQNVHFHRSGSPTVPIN", "assay": "CaMKIIδ binding assay (TR-FRET with BODIPY-labeled probe ligand)", "description": "In vitro CaMKIIδ inhibitory activity was evaluated by a binding assay.\nFull-Length, Glutathione-S-Transferase(GST)-Tagged, Human CaMKIIδ was purchased from Carna Biosciences (product #02-111, Kobe, Japan). Full-length bovine calmodulin was purchased from Wako Pure Chemical Industries (Osaka, Japan). Terbium-labeled anti-GST antibody (Tb-anti-GST Ab) was purchased from Life Technologies (Carlsbad, Calif., USA). Boron-dipyrromethene (BODIPY)-labeled probe ligand was synthesized as described below.\nTime-Resolved Fluorescence Resonance Energy Transfer (TR-FRET) Assay\nAll assays were conducted using 384-well, white, flat-bottomed plates (product #784075, Greiner Bio-One, Frickenhausen, Germany) in kinase assay buffer, which consists of 50 mM HEPES pH 7.6, 10 mM MgCl2, 1 mM EGTA, 0.01% Brig-35, 0.1 mM DTT). The fluorescent probe ligand was added at a final concentration of 300 nM to solutions containing 0.21 nM Tb-anti-GST Ab, 1 mM CaCl2), 10 μg/mL calmodulin, and 0.5 nM GST-tagged CaMKIIδ. After shaded incubation of the protein-probe mixture on ice for 30 min, the premix was dispensed in the assay plate including test inhibitors with 4 fold dilution series of eight concentrations. After 1 hr incubation at room temperature, TR-FRET signals were measured in duplicate using an EnVision microplate reader (Perkin Elmer, Waltham, Mass., USA). The solution in each well was excited with a laser (λ=340 nm) reflected by a dichroic mirror (D400/D505 (Perkin Elmer) through an excitation filter (UV (TRF) 340, (Perkin Elmer)), and fluorescence from Tb and BODIPY were detected through two emission filters (CFP 495 (Perkin Elmer) for Tb, Emission 520 (Perkin Elmer) for BODIPY).\nThe percentage of inhibition of test compounds was calculated according to equation (1) Inhibition (%)=100×([…]−T)/(μH−μL) (1)\nWhere T is the value of the wells containing test compounds and μH and μL are the mean values of the 0% and 100% inhibition control wells, respectively. The values of the 0 and 100% controls were the signals obtained in the absence and presence of 3 μM its parent compound, respectively. The half maximal inhibitory concentration (IC50) of test compounds was calculated by fitting the data with the logistic equation using XLfit (IDBS, Guildford, UK). The IC50 was classified according to the following activity ranks.", "key": {"[1]": {"settings": "Table 2, activity class for CaMKIIδ"}, "[2]": {"settings": "Table 2, CaMKIIδ binding assay, activity given as class A/B/C"}, "[3]": {"settings": "CaMKIIδ binding assay, activity class per Table 2"}, "[4]": {"settings": "CaMKIIδ binding assay, results of Table 2"}}, "data": [{"smiles": "C[C@@H](Cn1cnnn1)Oc1cc(-c2cnc(Nc3cn(CC4CCCN4C4CCOCC4)nc3C(F)(F)F)nc2)ccc1Cl", "note": "(stereo partly drawn) [Example 611, 5-(3-(((S)-1-(1H-tetrazol-1-yl)propan-2-yl)oxy)-4-chlorophenyl)-N-(1-((1-(tetrahydro-2H-pyran-4-yl)pyrrolidin-2-yl)methyl)-3-(trifluoromethyl)-1H-pyrazol-4-yl)pyrimidin-2-amine]", "values": [{"measurement": "IC50", "setting": "[1]", "result": "< 10", "unit": "nM"}]}, {"smiles": "CCc1nn(C2CCN(C3CCOCC3)CC2)cc1Nc1ncc(-c2ccc(Cl)c(O[C@@H](C)Cn3cnnn3)c2)cn1", "note": "[Example 632, (S)-5-(3-((1-(1H-tetrazol-1-yl)propan-2-yl)oxy)-4-chlorophenyl)-N-(3-ethyl-1-(1-(tetrahydro-2H-pyran-4-yl)piperidin-4-yl)-1H-pyrazol-4-yl)pyrimidin-2-amine]", "values": [{"measurement": "IC50", "setting": "[1]", "result": "< 10", "unit": "nM"}]}, {"smiles": "C[C@@H](Cn1cnnn1)Oc1cc(-c2cnc(Nc3cn([C@H]4C[C@@H](NC5CCOCC5)C4)nc3OCC(F)F)nc2)ccc1Cl", "note": "[Example 850, (S)-5-(3-((1-(1H-tetrazol-1-yl)propan-2-yl)oxy)-4-chlorophenyl)-N-(3-(2,2-difluoroethoxy)-1-(cis-3-((tetrahydro-2H-pyran-4-yl)amino)cyclobutyl)-1H-pyrazol-4-yl)pyrimidin-2-amine]", "values": [{"measurement": "IC50", "setting": "[2]", "result": "< 10", "unit": "nM"}]}, {"smiles": "C[C@@H](Cn1cnnn1)Oc1cc(-c2cnc(Nc3cn(C4CC5(C4)CN(C4CCC4)C5)nc3OCC(F)(F)F)nc2)ccc1Cl", "note": "[Example 933, (S)-5-(3-((1-(1H-tetrazol-1-yl)propan-2-yl)oxy)-4-chlorophenyl)-N-(1-(2-cyclobutyl-2-azaspiro[3.3]heptan-6-yl)-3-(2,2,2-trifluoroethoxy)-1H-pyrazol-4-yl)pyrimidin-2-amine]", "values": [{"measurement": "IC50", "setting": "[3]", "result": "< 10", "unit": "nM"}]}, {"smiles": "C[C@@H](Cn1cnnn1)Oc1cc(-c2cnc(Nc3cc(C4CCN(C5COC5)CC4)c(F)cc3F)nc2)ccc1Cl", "note": "[Example 578, (S)-5-(3-((1-(1H-tetrazol-1-yl)propan-2-yl)oxy)-4-chlorophenyl)-N-(2,4-difluoro-5-(1-(oxetan-3-yl)piperidin-4-yl)phenyl)pyrimidin-2-amine]", "values": [{"measurement": "IC50", "setting": "[4]", "result": "10 to 100", "unit": "nM"}]}, {"smiles": "C[C@@H](Cn1cnnn1)Oc1cc(-c2cnc(Nc3ccnn3-c3ccccc3)nc2)ccc1Cl", "note": "[Example 754, (S)-5-(3-((1-(1H-tetrazol-1-yl)propan-2-yl)oxy)-4-chlorophenyl)-N-(1-phenyl-1H-pyrazol-5-yl)pyrimidin-2-amine]", "values": [{"measurement": "IC50", "setting": "[2]", "result": "10 to 100", "unit": "nM"}]}, {"smiles": "C[C@@H](Cn1cnnn1)Oc1cc(-c2cnc(Nc3cc(C(F)(F)F)nn3C)nc2)ccc1Cl", "note": "[Example 720, (S)-5-(3-((1-(1H-tetrazol-1-yl)propan-2-yl)oxy)-4-chlorophenyl)-N-(1-methyl-3-(trifluoromethyl)-1H-pyrazol-5-yl)pyrimidin-2-amine]", "values": [{"measurement": "IC50", "setting": "[1]", "result": "10 to 100", "unit": "nM"}]}, {"smiles": "C[C@@H](Cn1cnnn1)Oc1cc(-c2cnc(Nc3cn(CC(F)F)nc3C(F)(F)F)nc2)ccc1Cl", "note": "[Example 743, (S)-5-(3-((1-(1H-tetrazol-1-yl)propan-2-yl)oxy)-4-chlorophenyl)-N-(1-(2,2-difluoroethyl)-3-(trifluoromethyl)-1H-pyrazol-4-yl)pyrimidin-2-amine]", "values": [{"measurement": "IC50", "setting": "[2]", "result": "10 to 100", "unit": "nM"}]}, {"smiles": "CCOC(=O)C1CCC(n2cc(Nc3ncc(-c4ccc(Cl)c(O[C@@H](C)Cn5cnnn5)c4)cn3)c(C(F)(F)F)n2)CC1", "note": "(stereo partly drawn) [Example 603, ethyl (S)-4-(4-((5-(3-((1-(1H-tetrazol-1-yl)propan-2-yl)oxy)-4-chlorophenyl)pyrimidin-2-yl)amino)-3-(trifluoromethyl)-1H-pyrazol-1-yl)cyclohexane-1-carboxylate]", "values": [{"measurement": "IC50", "setting": "[1]", "result": "10 to 100", "unit": "nM"}]}, {"smiles": "Cc1cc(Nc2ncc(-c3ccc(Cl)c(O[C@@H](C)Cn4cnnn4)c3)cn2)n(C)n1", "note": "[Example 751, (S)-5-(3-((1-(1H-tetrazol-1-yl)propan-2-yl)oxy)-4-chlorophenyl)-N-(1,3-dimethyl-1H-pyrazol-5-yl)pyrimidin-2-amine]", "values": [{"measurement": "IC50", "setting": "[2]", "result": "10 to 100", "unit": "nM"}]}, {"smiles": "C[C@@H](Cn1cnnn1)Oc1cc(-c2cnc(Nc3cc(N4CCN(C5CCOCC5)CC4)ncc3OC(F)(F)F)nc2)ccc1Cl", "note": "[Example 705, (S)-5-(3-((1-(1H-tetrazol-1-yl)propan-2-yl)oxy)-4-chlorophenyl)-N-(2-(4-(tetrahydro-2H-pyran-4-yl)piperazin-1-yl)-5-(trifluoromethoxy)pyridin-4-yl)pyrimidin-2-amine]", "values": [{"measurement": "IC50", "setting": "[1]", "result": "< 10", "unit": "nM"}]}, {"smiles": "C[C@@H](Cn1cnnn1)Oc1cc(-c2cnc(Nc3cn(C4CCCCO4)nc3OCC(F)(F)F)nc2)ccc1Cl", "note": "(stereo partly drawn) [Example 678, 5-(3-(((S)-1-(1H-tetrazol-1-yl)propan-2-yl)oxy)-4-chlorophenyl)-N-(1-(tetrahydro-2H-pyran-2-yl)-3-(2,2,2-trifluoroethoxy)-1H-pyrazol-4-yl)pyrimidin-2-amine]", "values": [{"measurement": "IC50", "setting": "[1]", "result": "< 10", "unit": "nM"}]}, {"smiles": "COc1cc2c(cc1Nc1ncc(-c3ccc(Cl)c(O[C@@H](C)Cn4cnnn4)c3)cn1)CN(CCO)CC2", "note": "[Example 511, (S)-2-(7-((5-(3-((1-(1H-tetrazol-1-yl)propan-2-yl)oxy)-4-chlorophenyl)pyrimidin-2-yl)amino)-6-methoxy-3,4-dihydroisoquinolin-2(1H)-yl)ethan-1-ol]", "values": [{"measurement": "IC50", "setting": "[4]", "result": "< 10", "unit": "nM"}]}, {"smiles": "C[C@@H](Cn1cnnn1)Oc1cc(-c2cnc(Nc3cn(C4CC5(CNC5)C4)nc3OCC(F)(F)F)nc2)ccc1C(F)F", "note": "[Example 949, (S)-5-(3-((1-(1H-tetrazol-1-yl)propan-2-yl)oxy)-4-(difluoromethyl)phenyl)-N-(1-(2-azaspiro[3.3]heptan-6-yl)-3-(2,2,2-trifluoroethoxy)-1H-pyrazol-4-yl)pyrimidin-2-amine]", "values": [{"measurement": "IC50", "setting": "[3]", "result": "< 10", "unit": "nM"}]}, {"smiles": "C[C@@H](Cn1cnnn1)Oc1cc(-c2cnc(Nc3cn([C@H]4C[C@H](NC(=O)OC(C)(C)C)C4)nc3OCC(F)(F)F)nc2)ccc1Cl", "note": "[Example 940, tert-butyl (trans-3-(4-((5-(3-(((S)-1-(1H-tetrazol-1-yl)propan-2-yl)oxy)-4-chlorophenyl)pyrimidin-2-yl)amino)-3-(2,2,2-trifluoroethoxy)-1H-pyrazol-1-yl)cyclobutyl)carbamate]", "values": [{"measurement": "IC50", "setting": "[3]", "result": "10 to 100", "unit": "nM"}]}, {"smiles": "CCn1cc(Nc2ncc(-c3ccc(Cl)c(O[C@@H](C)Cn4cnnn4)c3)cn2)c(C2CC2)n1", "note": "[Example 642, (S)-5-(3-((1-(1H-tetrazol-1-yl)propan-2-yl)oxy)-4-chlorophenyl)-N-(3-cyclopropyl-1-ethyl-1H-pyrazol-4-yl)pyrimidin-2-amine]", "values": [{"measurement": "IC50", "setting": "[1]", "result": "10 to 100", "unit": "nM"}]}, {"smiles": "C[C@@H](Cn1cnnn1)Oc1cc(-c2cnc(Nc3cn(C4CCC(=O)CC4)nc3C(F)(F)F)nc2)ccc1Cl", "note": "[Example 680, (S)-4-(4-((5-(3-((1-(1H-tetrazol-1-yl)propan-2-yl)oxy)-4-chlorophenyl)pyrimidin-2-yl)amino)-3-(trifluoromethyl)-1H-pyrazol-1-yl)cyclohexan-1-one]", "values": [{"measurement": "IC50", "setting": "[1]", "result": "10 to 100", "unit": "nM"}]}, {"smiles": "C[C@@H](Cn1cnnn1)Oc1cc(-c2cnc(Nc3cn(C4CC5(C4)CN(c4ncccn4)C5)nc3OCC(F)(F)F)nc2)ccc1Cl", "note": "[Example 952, (S)-5-(3-((1-(1H-tetrazol-1-yl)propan-2-yl)oxy)-4-chlorophenyl)-N-(1-(2-(pyrimidin-2-yl)-2-azaspiro[3.3]heptan-6-yl)-3-(2,2,2-trifluoroethoxy)-1H-pyrazol-4-yl)pyrimidin-2-amine]", "values": [{"measurement": "IC50", "setting": "[3]", "result": "< 10", "unit": "nM"}]}, {"smiles": "COc1cc(N2CCOC(CN(C)C)C2)ccc1Nc1ncc(-c2ccc(Cl)c(O[C@@H](C)Cn3cnnn3)c2)cn1", "note": "(stereo partly drawn) [Example 615, 5-(3-(((S)-1-(1H-tetrazol-1-yl)propan-2-yl)oxy)-4-chlorophenyl)-N-(4-(2-((dimethylamino)methyl)morpholino)-2-methoxyphenyl)pyrimidin-2-amine]", "values": [{"measurement": "IC50", "setting": "[1]", "result": "< 10", "unit": "nM"}]}, {"smiles": "C[C@@H](Cn1cnnn1)Oc1cc(-c2cnc(Nc3cn(C4CC5(C4)CN(C4COC(C)(C)OC4)C5)nc3OCC(F)(F)F)nc2)ccc1Cl", "note": "[Example 932, (S)-5-(3-((1-(1H-tetrazol-1-yl)propan-2-yl)oxy)-4-chlorophenyl)-N-(1-(2-(2,2-dimethyl-1,3-dioxan-5-yl)-2-azaspiro[3.3]heptan-6-yl)-3-(2,2,2-trifluoroethoxy)-1H-pyrazol-4-yl)pyrimidin-2-amine]", "values": [{"measurement": "IC50", "setting": "[3]", "result": "< 10", "unit": "nM"}]}, {"smiles": "C[C@@H](Cn1cnnn1)Oc1cc(-c2cnc(Nc3cn(CC4CNC(=O)O4)nc3C(F)(F)F)nc2)ccc1Cl", "note": "(stereo partly drawn) [Example 738, 5-((4-((5-(3-(((S)-1-(1H-tetrazol-1-yl)propan-2-yl)oxy)-4-chlorophenyl)pyrimidin-2-yl)amino)-3-(trifluoromethyl)-1H-pyrazol-1-yl)methyl)oxazolidin-2-one]", "values": [{"measurement": "IC50", "setting": "[2]", "result": "< 10", "unit": "nM"}]}]}
